Measurements taken from patent publication US20240199564A1, “TRPM8 AGONISTS AS COOLING AGENTS AND FOR THE TREATMENT OF DISEASE” (Concentric Analgesics, Inc., priority 2021, published 2024).

What was measured:
[1] = cited from earlier work
[2] = Solution state stability assay; type: physicochemical; conditions: 50° C.; for % degradation at 28 days: HPLC
Experimental: Compounds were incubated in the buffer media indicated (ingredients for making of PBS buffer and sodium citrate/citric acid buffer were obtained from Sigma-Aldrich, St. Louis, MO, USA). The reactions were conducted at either 50° C. and for 28 days. Samples were collected at specific time points and analyzed for % degradation of the parent compound based on UV/Vis analysis.
Methods: Samples were weighed using a Mettler Toledo XS105 analytical balance (accurate to +/−0.01 mg). Accurate dilutions were made with a P1000, P200, or P20 Gilson Pipetman, or an Eppendorf Maxipettor 1-10 mL pipettor. pH Measurements were made with a Hanna Instruments HI 4222 pH meter and a Hanna instruments HI 1330B micro pH probe. Samples were analyzed via high pressure liquid chromatography using an Agilent series 1100 HPLC instrument with a Grace Alltima column. Chromatograms were manually integrated. Individual chromatograms are assigned an automatic HPLC identification number.
Freshly prepared 1.0 mg/mL solution of each compound listed in Table # was allotted into two-dram clear glass vials. […] The vials were then stored in an oven set to 50° C. At the appropriate time points, the vials were removed from the oven, vortexed for 30 seconds and an aliquot (400 μL) was pipetted into an HPLC vial and quenched with 1% TFA in ACN (400 μL). […] For all samples, aliquots were taken after 28 days. Quenched vials were immediately analyzed via HPLC.

[3] = molecular target: T1, human TRPM8 receptor expressed in transfected 293H cells (Homo sapiens, UniProt Q7Z2W7); assay: TRPM8 Human Transient Potential Ion Channel Cell Based Agonist Calcium Flux Assay (FLIPR); conditions: Ca2+ mobilization, fluorometric detection, 293H cells; response relative to 3 μM icilin; read-out: TRPM8 agonist EC50
T1 construct: expressed in transfected cells; host or cells: 293H cells
Source text: This example discloses results from TRPM8 Human Transient Potential Ion Channel Cell Based Agonist Calcium Flux Assay. Evaluation of the agonist activity of compounds at the human TRPM8 receptor expressed in transfected 293H cells, determined by measuring their effect on cytosolic Ca2+ ion mobilization using a fluorometric detection method.
Protocol: The cells are suspended in DMEM buffer (Invitrogen), then distributed in microplates at a density of 3×10^4 cells/well. The fluorescent probe (Fluo4 Direct, Invitrogen) in HBSS buffer (Invitrogen) complemented with 20 mM Hepes (Invitrogen) (pH 7.4) is then added into each well and equilibrated with the cells for 60 min at 37° C. then 15 min at 22° C. Thereafter, the assay plates are positioned in a microplate reader (CellLux, PerkinElmer) which is used for the addition of the test compound, reference agonist or HBSS buffer (basal control), and the measurements of changes in fluorescence intensity which varies proportionally to the free cytosolic Ca2+ ion concentration. For stimulated control measurements, Icilin at 3 μM is added in separate assay wells. The results are expressed as a percent of the control response to 3 μM icilin. The standard reference agonist is Icilin, which is tested in each experiment at several concentrations to generate a concentration-response curve from which its EC50 value is calculated. (Behrendt, H. J., Germann, T., Gillen, C and Hatt, H. and Jostock, R. (2004), Characterization of the mouse cold-menthol receptor TRPM8 and vanilloid receptor type-1 VR1 using a fluorometric imaging plate reader (FLIPR) assay, Br. J. Pharmacol., 141: 737.)
Data analysis: EC50 values were determined as the concentration of test substance required to produce half-maximal increases in [Ca^2+]. Maximal [Ca^2+] responses were measured as peak fluorescence intensity (FI) minus basal FI, and expressed as percentages of the maximum response to icilin. Data are given as means±s.e.m., unless otherwise stated.
The EC50 values (concentration producing a half-maximal response) and IC50 values (concentration causing a half-maximal inhibition of the control agonist response) were determined by non-linear regression analysis of the concentration-response curves generated with mean replicate values using Hill equation curve fitting:
where Y=response, A=left asymptote of the curve, D=right asymptote of the curve, C=compound concentration, and C50=EC50, and nH=slope factor.

[4] = Solubility assay in DI water; type: physicochemical; conditions: DI water, thermodynamic from solid, HCl salts, visual, stepwise dilution from 200 mg/mL, sonication and vortex
Experimental: In order to determine the aqueous solubility of the compounds indicated, the HCl salts of the following compounds were incubated at 200 mg/mL in DI water followed by sonication for 60 seconds and then vortex stirring for 60 seconds. If insoluble material was observed, the sample was diluted to 150, 100, 50, 25, or 20 mg/mL until no insoluble material was observed. After each dilution, each sample was sonicated for 60 seconds, vortexed for 60 seconds and let equilibrate with occasional shaking for 30 minutes.

T1 sequence (Q7Z2W7 whole entry): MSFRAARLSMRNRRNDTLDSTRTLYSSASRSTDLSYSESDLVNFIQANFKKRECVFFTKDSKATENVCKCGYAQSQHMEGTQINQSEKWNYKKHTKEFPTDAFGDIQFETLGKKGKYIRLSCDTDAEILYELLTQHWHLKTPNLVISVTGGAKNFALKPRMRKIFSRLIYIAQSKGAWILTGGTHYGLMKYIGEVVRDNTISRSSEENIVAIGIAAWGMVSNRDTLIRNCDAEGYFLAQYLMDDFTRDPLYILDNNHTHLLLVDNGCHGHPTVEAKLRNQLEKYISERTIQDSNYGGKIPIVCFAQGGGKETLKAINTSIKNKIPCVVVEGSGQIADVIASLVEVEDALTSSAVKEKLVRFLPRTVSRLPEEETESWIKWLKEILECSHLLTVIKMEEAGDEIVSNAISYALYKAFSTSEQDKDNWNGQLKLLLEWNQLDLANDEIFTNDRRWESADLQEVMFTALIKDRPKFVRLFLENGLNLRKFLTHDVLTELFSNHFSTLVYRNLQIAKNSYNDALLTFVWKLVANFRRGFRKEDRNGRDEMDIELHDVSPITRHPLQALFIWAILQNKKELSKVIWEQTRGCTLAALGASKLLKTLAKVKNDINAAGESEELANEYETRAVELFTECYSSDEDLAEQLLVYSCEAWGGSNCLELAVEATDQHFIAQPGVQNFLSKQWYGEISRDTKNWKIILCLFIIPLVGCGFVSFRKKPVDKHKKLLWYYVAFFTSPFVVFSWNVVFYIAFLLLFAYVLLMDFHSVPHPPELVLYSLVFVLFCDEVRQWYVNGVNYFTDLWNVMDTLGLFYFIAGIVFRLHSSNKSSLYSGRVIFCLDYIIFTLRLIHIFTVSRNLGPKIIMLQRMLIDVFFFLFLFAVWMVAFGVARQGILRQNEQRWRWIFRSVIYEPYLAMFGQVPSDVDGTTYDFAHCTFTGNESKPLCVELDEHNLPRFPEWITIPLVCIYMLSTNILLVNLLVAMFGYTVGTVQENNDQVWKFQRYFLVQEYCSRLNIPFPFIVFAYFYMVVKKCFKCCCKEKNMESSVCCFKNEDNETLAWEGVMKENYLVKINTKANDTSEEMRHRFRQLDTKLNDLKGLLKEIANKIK

Structure (SMILES) | known aqueous solubility in water [1] [mg/mL] | aqueous stability / hydrolysis, comparison in words ([2]; buffer, 28 days) | % degradation at 28 days ([2]; pH = ~5.0 (0.2 M aqueous sodium citrate/citric acid buffer)) [%] | % degradation at 28 days ([2]; pH = ~7.4 (1X Phosphate Buffered Saline)) [%] | EC50 [3] [µM] | solubility at 30 min [4] [mg/mL]
CC(C)[C@@H]1CC[C@@H](C)C[C@H]1O [menthol, (1R,2S,5R)-2-isopropyl-5-methylcyclohexanol] | ~0.4 | – | – | – | – | –
CC(C)[C@@H]1CC[C@@H](C)C[C@H]1C(=O)NCc1ccc(CN)cc1.Cl [Compound 4, (1R,2S,5R)-N-(4-(aminomethyl)benzyl)-2-isopropyl-5-methylcyclohexanecarboxamide hydrochloride] | – | greatest aqueous stability | ~7.1 | ~1.7 | 0.1 | ≥ 20
